Data as given in patent US11174252B2, “Heterocyclic compounds as kinase inhibitors” (priority 2018, dated 2021).
Structures can show the parent of a compound that is named as a salt. Where two headings read alike, the source gives them in different places.

Key:
FMS kinase = FMS kinase (Homo sapiens (Human), UniProt P07333); assay: LanthaScreen kinase assay (ATP, fluorescent-PolyGT substrate, TR-FRET); assay type: biochemical
MCF-7 = assay: Cancer cell proliferation assay, single agent; assay type: cell-based; settings: Homo sapiens
CDK4 = CDK4 (Homo sapiens (Human), UniProt P11802); assay: In vitro kinase inhibition, luminescence (ADP-Glo) with retinoblastoma substrate; assay type: biochemical
CDK6 = CDK6 (Homo sapiens (Human), UniProt Q00534); assay: biochemical; assay type: biochemical
[1] = MCF7, MCF-7 cells, treated for 24-168 hours, read-out: IC50 (nM) MCF-7
[2] = MCF7, read-out: IC50 (nM) MCF-7

Chain of FMS kinase (P07333 20-972): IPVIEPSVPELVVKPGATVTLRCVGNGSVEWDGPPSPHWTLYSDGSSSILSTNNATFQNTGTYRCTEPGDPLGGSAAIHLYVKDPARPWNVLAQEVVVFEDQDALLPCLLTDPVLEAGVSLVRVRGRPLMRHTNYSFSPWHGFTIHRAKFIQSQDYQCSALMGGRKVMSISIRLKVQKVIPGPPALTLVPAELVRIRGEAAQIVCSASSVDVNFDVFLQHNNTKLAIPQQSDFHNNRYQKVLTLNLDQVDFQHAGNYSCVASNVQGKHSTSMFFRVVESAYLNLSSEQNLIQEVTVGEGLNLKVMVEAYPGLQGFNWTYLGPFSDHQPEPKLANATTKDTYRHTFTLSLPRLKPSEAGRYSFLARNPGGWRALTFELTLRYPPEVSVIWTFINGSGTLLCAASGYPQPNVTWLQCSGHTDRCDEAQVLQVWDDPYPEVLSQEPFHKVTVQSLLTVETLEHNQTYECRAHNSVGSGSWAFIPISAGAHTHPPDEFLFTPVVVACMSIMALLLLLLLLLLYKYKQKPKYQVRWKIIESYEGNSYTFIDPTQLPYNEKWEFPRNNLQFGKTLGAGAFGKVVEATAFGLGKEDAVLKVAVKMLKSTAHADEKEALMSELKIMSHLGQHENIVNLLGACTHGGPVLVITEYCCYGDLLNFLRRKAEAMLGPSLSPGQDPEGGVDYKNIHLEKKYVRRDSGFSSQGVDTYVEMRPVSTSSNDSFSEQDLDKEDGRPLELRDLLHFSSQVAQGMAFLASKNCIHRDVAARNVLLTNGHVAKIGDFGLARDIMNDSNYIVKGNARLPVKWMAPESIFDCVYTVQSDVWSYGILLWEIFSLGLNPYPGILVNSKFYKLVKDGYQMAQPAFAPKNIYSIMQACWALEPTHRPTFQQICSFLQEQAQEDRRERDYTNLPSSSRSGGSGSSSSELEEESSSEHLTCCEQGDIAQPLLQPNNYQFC
Chain of CDK4 (P11802 whole entry): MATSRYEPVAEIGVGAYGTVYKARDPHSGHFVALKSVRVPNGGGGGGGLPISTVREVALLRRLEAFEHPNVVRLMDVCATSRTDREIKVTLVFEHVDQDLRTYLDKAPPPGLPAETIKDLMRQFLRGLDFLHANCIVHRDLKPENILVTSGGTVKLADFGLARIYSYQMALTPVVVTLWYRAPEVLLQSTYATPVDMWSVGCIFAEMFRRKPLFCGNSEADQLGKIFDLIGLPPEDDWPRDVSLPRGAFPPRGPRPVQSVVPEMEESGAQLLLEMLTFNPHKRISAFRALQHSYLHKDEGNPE
Chain of CDK4 (P24385 whole entry partner): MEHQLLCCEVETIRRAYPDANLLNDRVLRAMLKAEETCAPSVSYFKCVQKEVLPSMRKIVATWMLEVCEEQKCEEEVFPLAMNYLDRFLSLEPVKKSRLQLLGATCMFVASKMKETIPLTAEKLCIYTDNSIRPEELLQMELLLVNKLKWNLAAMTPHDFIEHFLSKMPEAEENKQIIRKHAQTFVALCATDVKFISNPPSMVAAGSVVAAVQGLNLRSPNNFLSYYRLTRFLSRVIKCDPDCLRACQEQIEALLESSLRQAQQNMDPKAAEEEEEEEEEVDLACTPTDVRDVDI

SMILES | IC50 (FMS kinase) [nM] | IC50 (MCF-7; [1]) [nM] | IC50 (MCF-7; [2]) [nM] | IC50 (CDK4) [nM] | IC50 (CDK6) [nM]
CC(C)N1CCOc2c(F)cc(-c3nc(Nc4cc(N5CCNCC5)ccn4)ncc3F)cc21 [Compound 5, 5-fluoro-4-(8-fluoro-4-isopropyl-3,4-dihydro-2H-benzo[b][1,4]oxazin-6-yl)-N-(4-(piperazin-1-yl)pyridin-2-yl)pyrimidin-2-amine] | > 3630 |  |  |  | 
CC(C)N1CCOc2c(F)cc(-c3nc(Nc4ccc(N5CCN(C)CC5)cc4)ncc3F)cc21 [Compound 6, 5-fluoro-4-(8-fluoro-4-isopropyl-3,4-dihydro-2H-benzo[b][1,4]oxazin-6-yl)-N-(4-(4-methylpiperazin-1-yl)phenyl)pyrimidin-2-amine] | 82 | 30 |  |  | 
CCN1CCN(Cc2ccc(Nc3ncc(F)c(-c4cc(F)c5c(c4)N(C(=O)C4CC4)CCO5)n3)nc2)CC1 [Compound 8, cyclopropyl(6-(2-((5-((4-ethylpiperazin-1-yl)methyl)pyridin-2-yl)amino)-5-fluoropyrimidin-4-yl)-8-fluoro-2,3-dihydro-4H-benzo[b][1,4]oxazin-4-yl)methanone] | > 5000 |  |  |  | 
CC(C)N1CCOc2c(F)cc(-c3nc(Nc4ccc(N5CCNCC5)cc4F)ncc3F)cc21 [Compound 11, 5-fluoro-N-(2-fluoro-4-(piperazin-1-yl)phenyl)-4-(8-fluoro-4-isopropyl-3,4-dihydro-2H-benzo[b][1,4]oxazin-6-yl)pyrimidin-2-amine] | 250 |  | 225 |  | 
CC(C)N1CCOc2c(F)cc(-c3nc(Nc4ccc5c(c4)CCNC5)ncc3F)cc21 [Compound 13, N-(5-fluoro-4-(8-fluoro-4-isopropyl-3,4-dihydro-2H-benzo[b][1,4]oxazin-6-yl)pyrimidin-2-yl)-1,2,3,4-tetrahydroisoquinolin-6-amine] |  |  | 3.8 |  | 
CC(C)N1CCOc2c(F)cc(-c3nc(Nc4ccc(N5CCN(C)CC5)c(F)c4)ncc3F)cc21 [Compound 14, 5-fluoro-N-(3-fluoro-4-(4-methylpiperazin-1-yl)phenyl)-4-(8-fluoro-4-isopropyl-3,4-dihydro-2H-benzo[b][1,4]oxazin-6-yl) pyrimidin-2-amine] | 49 |  | 11 |  | 
CC(C)N1CCOc2c(F)cc(-c3nc(Nc4cccc5c4CCNC5)ncc3F)cc21 [Compound 15, N-(5-fluoro-4-(8-fluoro-4-isopropyl-3,4-dihydro-2H-benzo[b][1,4]oxazin-6-yl)pyrimidin-2-yl)-1,2,3,4-tetrahydroisoquinolin-5-amine] | 22 |  | 114 |  | 
CC(C)N1CCOc2c(F)cc(-c3nc(Nc4ccc5c(c4)CNCC5)ncc3F)cc21 [Compound 16, N-(5-fluoro-4-(8-fluoro-4-isopropyl-3,4-dihydro-2H-benzo[b][1,4]oxazin-6-yl)pyrimidin-2-yl)-1,2,3,4-tetrahydroisoquinolin-7-amine] | 2.5 |  | 3.8 |  | 
CC(C)N1CCN(c2ccc(Nc3ncc(F)c(-c4cc(F)c5c(c4)N(C(C)C)CCO5)n3)cc2F)CC1 [Compound 17, 5-fluoro-N-(3-fluoro-4-(4-isopropylpiperazin-1-yl)phenyl)-4-(8-fluoro-4-isopropyl-3,4-dihydro-2H-benzo[b][1,4]oxazin-6-yl)pyrimidin-2-amine] | 21 |  | 15 | 8 | 
CC(C)N1CCOc2c(F)cc(-c3nc(Nc4ccc(C5CCNCC5)c(F)c4)ncc3F)cc21 [Compound 18, 5-fluoro-N-(3-fluoro-4-(piperidin-4-yl)phenyl)-4-(8-fluoro-4-isopropyl-3,4-dihydro-2H-benzo[b][1,4]oxazin-6-yl) pyrimidin-2-amine] | 19 |  | < 10 |  | 
CC(C)N1CCc2ccc(Nc3ncc(F)c(-c4cc(F)c5c(c4)N(C(C)C)CCO5)n3)cc2C1 [Compound 19, N-(5-fluoro-4-(8-fluoro-4-isopropyl-3,4-dihydro-2H-benzo[b][1,4]oxazin-6-yl)pyrimidin-2-yl)-2-isopropyl-1,2,3,4-tetrahydroisoquinolin-7-amine] | 3 | < 10 |  |  | 
CC(C)N1CCc2c(cccc2Nc2ncc(F)c(-c3cc(F)c4c(c3)N(C(C)C)CCO4)n2)C1 [Compound 20, N-(5-fluoro-4-(8-fluoro-4-isopropyl-3,4-dihydro-2H-benzo[b][1,4]oxazin-6-yl)pyrimidin-2-yl)-2-isopropyl-, 2,3,4-tetrahydroisoquinolin-5-amine] | 17 | 145 |  |  | 
CC(C)N1CCOc2c(F)cc(-c3nc(Nc4ccc(N5CCNCC5)c(C#N)c4)ncc3F)cc21 [Compound 21, 5-((5-fluoro-4-(8-fluoro-4-isopropyl-3,4-dihydro-2H-benzo[b][1,4]oxazin-6-yl)pyrimidin-2-yl)amino)-2-(piperazin-1-yl) benzonitrile] | 163 |  | < 10 |  | 
CC(C)N1CCc2cc(Nc3ncc(F)c(-c4cc(F)c5c(c4)N(C(C)C)CCO5)n3)ccc2C1 [Compound 22, N-(5-fluoro-4-(8-fluoro-4-isopropyl-3,4-dihydro-2H-benzo[b][1,4]oxazin-6-yl)pyrimidin-2-yl)-2-isopropyl-1,2,3,4-tetrahydroisoquinolin-6-amine] | 6.5 | < 10 |  |  | 
CC(C)N1CCOc2c(F)cc(-c3nc(Nc4ccc(N5CCNCC5)c(F)c4F)ncc3F)cc21 [Compound 28, N-(2,3-difluoro-4-(piperazin-1-yl)phenyl)-5-fluoro-4-(8-fluoro-4-isopropyl-3,4-dihydro-2H-benzo[b][1,4]oxazin-6-yl)pyrimidin-2-amine] | 123 |  | 150 |  | 
COc1cc(Nc2ncc(F)c(-c3cc(F)c4c(c3)N(C(C)C)CCO4)n2)ccc1N1CCNCC1 [Compound 29, 5-fluoro-4-(8-fluoro-4-isopropyl-3,4-dihydro-2H-benzo[b][1,4]oxazin-6-yl)-N-(3-methoxy-4-(piperazin-1-yl)phenyl)pyrimidin-2-amine] | 2.5 |  | 48 |  | 
CC(C)N1CCOc2c(F)cc(-c3nc(Nc4cc(F)c(N5CCNCC5)cc4F)ncc3F)cc21 [Compound 31, N-(2,5-difluoro-4-(piperazin-1-yl)phenyl)-5-fluoro-4-(8-fluoro-4-isopropyl-3,4-dihydro-2H-benzo[b][1,4]oxazin-6-yl)pyrimidin-2-amine] | 49 |  | 193 |  | 
CC(C)N1CCOc2c(F)cc(-c3nc(Nc4ccc5c(c4)CC(N(C)C)C5)ncc3F)cc21 (stereo not shown) [Compound 37, N^5-(5-fluoro-4-(8-fluoro-4-isopropyl-3,4-dihydro-2H-benzo[b][1,4]oxazin-6-yl)pyrimidin-2-yl)-N^2,N^2-dimethyl-2,3-dihydro-1H-indene-2,5-diamine] |  |  | < 14 |  | 
CC(C)N1CCOc2c(F)cc(-c3nc(Nc4ccn(C5=CCNCC5)c(=O)c4)ncc3F)cc21 [Compound 39, 4-((5-fluoro-4-(8-fluoro-4-isopropyl-3,4-dihydro-2H-benzo[b][1,4]oxazin-6-yl)pyrimidin-2-yl)amino)-1′,2′,3′,6′-tetrahydro-2H-[1,4′-bipyridin]-2-one] | 33 | 45 |  |  | 
CC(C)N1CCOc2c(F)cc(-c3nc(Nc4ccc(N5CCC(N(C)C)CC5)c(C(F)(F)F)c4)ncc3F)cc21 [Compound 178, N-(4-(4-(dimethylamino)piperidin-1-yl)-3-(trifluoromethyl)phenyl)-5-fluoro-4-(8-fluoro-4-isopropyl-3,4-dihydro-2H-benzo[b][1,4]oxazin-6-yl)pyrimidin-2-amine] | 5 | 210 |  |  | 
COC1CCN(c2ccc(Nc3ncc(F)c(-c4cc(F)c5c(c4)N(C(C)C)CCO5)n3)nc2)CC1 [Compound 843, 5-fluoro-4-(8-fluoro-4-isopropyl-3,4-dihydro-2H-benzo[b][1,4]oxazin-6-yl)-N-(5-(4-methoxypiperidin-1-yl)pyridin-2-yl)pyrimidin-2-amine hydrochloride] |  |  |  | 65 | 24
COc1nc(Nc2ncc(F)c(-c3cc(F)c4c(c3)N(C(C)C)CCO4)n2)ccc1C1CCN(C)CC1 [Compound 844, 5-fluoro-4-(8-fluoro-4-isopropyl-3,4-dihydro-2H-benzo[b][1,4]oxazin-6-yl)-N-(6-methoxy-5-(1-methylpiperidin-4-yl)pyridin-2-yl)pyrimidin-2-amine] |  |  |  | 31 | 35
CC(C)N1CCOc2c(F)cc(-c3nc(Nc4ccc(C5CCN(C)CC5)c(C#N)n4)ncc3F)cc21 [Compound 845, 6-((5-fluoro-4-(8-fluoro-4-isopropyl-3,4-dihydro-2H-benzo[b][1,4]oxazin-6-yl)pyrimidin-2-yl)amino)-3-(1-methylpiperidin-4-yl)picolinonitrile] |  |  |  | 23 | 29
CC(C)N1CCOc2c(F)cc(-c3nc(Nc4ccc(C5CCN(C)CC5)c(F)n4)ncc3F)cc21 [Compound 846, 5-fluoro-4-(8-fluoro-4-isopropyl-3,4-dihydro-2H-benzo[b][1,4]oxazin-6-yl)-N-(6-fluoro-5-(1-methylpiperidin-4-yl)pyridin-2-yl)pyrimidin-2-amine] |  |  |  | 3 | 4
CC(C)N1CCOc2c(F)cc(-c3nc(Nc4ccc(C5CCN(C)CC5)c(C5CC5)n4)ncc3F)cc21 [Compound 847, N-(6-cyclopropyl-5-(1-methylpiperidin-4-yl)pyridin-2-yl)-5-fluoro-4-(8-fluoro-4-isopropyl-3,4-dihydro-2H-benzo[b][1,4]oxazin-6-yl)pyrimidin-2-amine] |  |  |  | 44 | 107
CCCc1nc(Nc2ncc(F)c(-c3cc(F)c4c(c3)N(C(C)C)CCO4)n2)ccc1C1CCN(C)CC1 [Compound 848, 5-fluoro-4-(8-fluoro-4-isopropyl-3,4-dihydro-2H-benzo[b][1,4]oxazin-6-yl)-N-(5-(1-methylpiperidin-4-yl)-6-propylpyridin-2-yl)pyrimidin-2-amine] |  |  |  | 44 | 110
